ChEMBL document CHEMBL1142047, “Identification of a 5-HT4 receptor antagonist clinical candidate through side-chain modification” (Bioorg Med Chem Lett, 2005)

Experiments:
[1] = molecular target: 5-hydroxytryptamine receptor 4 (Homo sapiens, UniProt Q13639); assay: Inhibitory constant for human cloned 5-HT4 receptor
in vivo [2] = details: dog, plasma, iv, 0.25 mg/kg
[3] = Volume of distribution in dog (n=7; dose 0.25 mg/kg iv or 0.5 mg/kg po); details: in vivo
[4] = Time taken for half of the concentration to degrade upon intravenous administration (n=7; dose 0.25 mg/kg iv); details: dog, in vivo
[5] = (§1) Bioavailability in dog (dose 0.25 mg/kg i.v. and 0.5 mg/kg p.o.); details: in vivo, po
[6] = Time taken for half of the concentration to degrade upon oral administration; format: ADME, organism-based, Canis lupus familiaris; details: dog, in vivo
[7] = Time taken for half of the concentration to degrade upon oral administration (n=7; 0.5 mg/kg po); format: ADME, organism-based, Canis lupus familiaris; set-up: dose 0.5 mg/kg, route oral; details: dog, in vivo
Histamine H1 receptor = Histamine H1 receptor (Rattus norvegicus, UniProt P31390)
[8] = as §1; format: ADME, organism-based, Canis lupus familiaris; details: in vivo, po
[9] = Volume of distribution in dog (n=8; dose 0.25 mg/kg iv or 0.5 mg/kg po); format: ADME, organism-based, Canis lupus familiaris; details: in vivo, read-out: Vz
[10] = Plasma clearance in dog (n=8; dose 0.25 mg/kg iv or 0.5 mg/kg po); format: ADME, organism-based, Canis lupus familiaris
[11] = Time taken for half of the concentration to degrade upon intravenous administration (n=8; dose 0.25 mg/kg iv); format: ADME, organism-based, Canis lupus familiaris; set-up: dose 0.25 mg/kg, route intravenous; details: dog, in vivo
in vivo [12] = details: rat
[13] = Bioavailability in rat; format: ADME, organism-based; details: in vivo
[14] = Half-life in human; format: ADME
in vivo [15] = details: dog, plasma, iv, 0.25 mg/kg; remark: listed apart in the source
[16] = Volume of distribution in dog (n=12; dose 0.25 mg/kg iv or 0.5 mg/kg po); details: in vivo
[17] = Time taken for half of the concentration to degrade upon intravenous administration (n=12; dose 0.25 mg/kg iv); details: dog, in vivo
[18] = Intrinsic clearance of compound in dog liver microsomes
[19] = Intrinsic clearance of compound in human liver microsomes
[20] = Percentage bioavailability (n=12; dose 0.25 mg/kg iv or 0.5 mg/kg po); format: ADME, organism-based, Canis lupus familiaris; details: dog, in vivo

Chain of 5-hydroxytryptamine receptor 4 (Q13639 whole entry): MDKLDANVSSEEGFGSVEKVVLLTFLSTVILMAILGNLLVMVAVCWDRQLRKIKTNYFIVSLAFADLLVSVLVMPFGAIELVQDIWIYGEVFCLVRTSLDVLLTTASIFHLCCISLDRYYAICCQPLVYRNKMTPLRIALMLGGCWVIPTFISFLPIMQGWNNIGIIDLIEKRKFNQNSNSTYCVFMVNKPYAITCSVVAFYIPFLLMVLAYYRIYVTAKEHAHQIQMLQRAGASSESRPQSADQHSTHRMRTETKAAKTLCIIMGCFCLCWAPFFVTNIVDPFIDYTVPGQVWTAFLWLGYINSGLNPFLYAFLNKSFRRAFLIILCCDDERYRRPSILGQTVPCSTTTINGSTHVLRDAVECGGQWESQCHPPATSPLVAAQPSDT
Chain of Histamine H1 receptor (P31390 whole entry): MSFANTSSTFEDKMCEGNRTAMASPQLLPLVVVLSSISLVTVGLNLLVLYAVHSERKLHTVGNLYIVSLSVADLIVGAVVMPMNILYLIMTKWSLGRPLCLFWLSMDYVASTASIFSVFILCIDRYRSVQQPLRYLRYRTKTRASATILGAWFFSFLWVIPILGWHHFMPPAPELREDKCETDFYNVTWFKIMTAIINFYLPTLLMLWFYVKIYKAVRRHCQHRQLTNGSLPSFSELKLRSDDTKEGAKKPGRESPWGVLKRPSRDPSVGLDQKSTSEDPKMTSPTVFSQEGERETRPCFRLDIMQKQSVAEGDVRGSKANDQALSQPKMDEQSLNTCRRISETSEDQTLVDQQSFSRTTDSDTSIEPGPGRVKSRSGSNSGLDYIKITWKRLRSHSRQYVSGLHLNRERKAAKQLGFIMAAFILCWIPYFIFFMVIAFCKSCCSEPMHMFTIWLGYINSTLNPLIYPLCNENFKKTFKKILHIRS

Row | Structure (SMILES) | Ki [1] [nM] | Vd [3] [L/kg] | half-life [4] [min] | bioavailability [5] [%] | other results
1 | CC1(C)CCN(S(=O)(=O)CCCN2CCC(CNC(=O)c3cccc4c3OCCO4)CC2)CC1 | 0.126 | 1.5 | 42 | 100 | clearance (in vivo [2]): 27 mL/min/kg
2 | CC(=O)N1CCN(S(=O)(=O)CCCN2CCC(CNC(=O)c3cccc4c3OCCO4)CC2)CC1 | 0.126 | 0.7 | 78 | 51 | clearance (in vivo [2]): 6 mL/min/kg; half-life [6]: 276 min
3 | CS(=O)(=O)N1CCN(S(=O)(=O)CCCN2CCC(CNC(=O)c3cccc4c3OCCO4)CC2)CC1 | 0.316 | 0.3 | 72 | 90 | half-life [7]: 216 min
4 | CC(C)S(=O)(=O)N1CCN(S(=O)(=O)CCCN2CCC(CNC(=O)c3cccc4c3OCCO4)CC2)CC1 | 0.126 | – | – | – | –
5 | CCCC1CCN(S(=O)(=O)CCCN2CCC(CNC(=O)c3cccc4c3OCCO4)CC2)CC1 | 0.0631 | 1.4 | 30 | 15 | clearance (in vivo [2]): 33 mL/min/kg
6 | CN1CCN(S(=O)(=O)CCCN2CCC(CNC(=O)c3cccc4c3OCCO4)CC2)CC1 | 0.251 | – | – | – | IC50 (Histamine H1 receptor): 100 nM
7 | O=C(NCC1CCN(CCCS(=O)(=O)N2CCN(c3ccc(F)cc3)CC2)CC1)c1cccc2c1OCCO2 | 0.0501 | – | – | – | –
8 | O=C(NCC1CCN(CCCS(=O)(=O)N2CCNCC2)CC1)c1cccc2c1OCCO2 | 0.158 | – | – | – | bioavailability [8]: 33%; Vd [9]: 34 L/kg; clearance [10]: 11 mL/min/kg; half-life [11]: 2220 min
9 | O=C(NCC1CCN(CCCS(=O)(=O)N2CCN(C(=O)c3ccco3)CC2)CC1)c1cccc2c1OCCO2 | 0.1 | – | – | – | bioavailability [8]: 64%; Vd [9]: 0.2 L/kg; clearance [10]: 2 mL/min/kg; half-life [11]: 60 min
10 | O=C(NCC1CCN(CCCS(=O)(=O)N2CCN(C3CCCC3)CC2)CC1)c1cccc2c1OCCO2 | 0.0158 | – | – | – | bioavailability [8]: 42%; Vd [9]: 9.3 L/kg; clearance [10]: 37 mL/min/kg; half-life [11]: 174 min
11 | CCCN1CCN(S(=O)(=O)CCCN2CCC(CNC(=O)c3cccc4c3OCCO4)CC2)CC1 | 0.0316 | – | – | – | –
12 | CCC(C)N1CCN(S(=O)(=O)CCCN2CCC(CNC(=O)c3cccc4c3OCCO4)CC2)CC1 (configuration not stated) | 0.0251 | – | – | – | –
13 | O=C(NCC1CCN(CCCS(=O)(=O)N2CCN(Cc3cccnc3)CC2)CC1)c1cccc2c1OCCO2 | 0.158 | – | – | – | –
14 | O=C(NCC1CCN(CCCS(=O)(=O)N2CCCCC2)CC1)c1cccc2c1OCCO2 | 0.2 | – | – | – | –
15 | CCCCN1CCC(CNC(=O)c2cccc3c2OCCO3)CC1 | 0.794 | – | – | – | half-life (in vivo [12]): < 60 min; bioavailability [13]: 18%; half-life [14]: 2.5 days
16 | CC(C)N1CCN(S(=O)(=O)CCCN2CCC(CNC(=O)c3cccc4c3OCCO4)CC2)CC1 | 0.0316 | 3.6 | 180 | 72 | clearance (in vivo [2]): 14 mL/min/kg
17 | CCCS(=O)(=O)N1CCN(S(=O)(=O)CCCN2CCC(CNC(=O)c3cccc4c3OCCO4)CC2)CC1 | 0.1 | 0.7 | 42 | 82 | clearance (in vivo [2]): 12 mL/min/kg
18 | O=C(NCC1CCN(CCCS(=O)(=O)N2CCN(S(=O)(=O)N3CCCC3)CC2)CC1)c1cccc2c1OCCO2 | 0.0794 | – | – | – | –
19 | O=C(NCC1CCN(CCCS(=O)(=O)N2CCN(c3ncccn3)CC2)CC1)c1cccc2c1OCCO2 | 0.251 | 0.3 | 42 | 65 | clearance (in vivo [2]): 5 mL/min/kg
20 | O=C(NCC1CCN(CCCS(=O)(=O)N2CCC3(CCCC3)CC2)CC1)c1cccc2c1OCCO2 | 0.0251 | – | – | – | –
21 | O=C(NCC1CCN(CCCS(=O)(=O)N2CCOCC2)CC1)c1cccc2c1OCCO2 | 0.398 | – | – | 76 | clearance (in vivo [15]): 7 mL/min/kg; Vd [16]: 1.6 L/kg; half-life [17]: 60 min
22 | O=C(NCC1CCN(CCCS(=O)(=O)N2CCN(S(=O)(=O)c3ccc(F)cc3)CC2)CC1)c1cccc2c1OCCO2 | 0.0316 | – | – | – | –
23 | CCN1CCN(S(=O)(=O)CCCN2CCC(CNC(=O)c3cccc4c3OCCO4)CC2)CC1 | 0.0501 | 3.6 | 186 | 94 | –
24 | CCCCN1CCC(CNC(=O)c2c3n(c4ccccc24)CCCO3)CC1 [PIBOSEROD] | 0.251 | – | – | – | microsomal CLint [18]: 4 µL/min/mg; microsomal CLint [19]: 5 µL/min/mg; clearance (in vivo [15]): 8 mL/min/kg; Vd [16]: 5 L/kg; half-life [17]: 426 min; bioavailability [20]: 71%
